Laboratory results as given in PMC7395068, “The evolution of strategies to minimise the risk of human drug-induced liver injury (DILI) in drug discovery and development” (Archives of Toxicology, 2020).
Like-named read-outs stand apart in the source and are kept apart here. Values belong to the molecule of their own block, whether it stands above or below them.

Columns and labels:
[1] = test system: THLE-Null and THLE-3A4 cells; conditions: In vitro Assay; ref Gustafsson 2014; cited from earlier work
[2] = test system: HepG2 C3A spheroid, BSEP, Glu/Gal in HepG2 cells, bioactivation; conditions: cited from earlier work; for Bayesian Machine Learning DILI prediction, Williams (2019): Bayesian modeling, ref Williams et al. 2019; for Bayesian Machine Learning: In vitro Assay, ref Williams 2019
[3] = test system: human hepatocytes; conditions: cited from earlier work
[4] = test system: PHH spheroids; conditions: cited from earlier work; for hLiMTs ATP <20 x Cmax: In vitro Assay, ref Vorrink 2018
[5] = test system: HepG2 cells, primary human hepatocytes; conditions: In vitro Assay; ref Garside 2014; cited from earlier work
[6] = read-out: Human plasma Cmax; total plasma Cmax.tot, median of 9 literature references; cited from earlier work
[7] = Plasma free fraction (fu) and unbound Cmax (Cmax,u); assay type: in vitro ADME, human; conditions: unbound plasma Cmax
[8] = plasma free fraction; cited from earlier work
[9] = test system: hLiMTs; assay: Combined HCI (HCS) and cellular ATP 3D assay in hLiMTs; conditions: for AC50 / minimal effective concentration: Homo sapiens; for DILI prediction hLiMTs (HCS-MEC): Microtissue model structural based (HCI), combined HCS and ATP, MEC < 25 × Cmax.tot cut-off; for hLiMTs <25x Avg Cmax ATP / hLiMTs <25x Avg Cmax HCS / hLiMTs <25x Avg Cmax All: cut-off <25x Avg Cmax; for hLiMTs <25x Avg Cmax All: all endpoints (ATP and HCS); for hLiMTs Cmax max All: Cmax max used; for hLiMTs Cmax min All: Cmax min used
[10] = test system: HepaRG spheroids; assay: Combined HCI (HCS) and cellular ATP 3D assay in HepaRG spheroids; conditions: for HepaRG <25x Avg Cmax ATP / HepaRG <25x Avg Cmax HCS / HepaRG <25x Avg Cmax All: cut-off <25x Avg Cmax; for HepaRG <25x Avg Cmax All: all endpoints (ATP and HCS); for HepaRG Cmax max All: Cmax max used; for HepaRG Cmax min All: Cmax min used; for AC50 / minimal effective concentration: Homo sapiens; for DILI prediction HepaRG spheroids (HCS-MEC): Microtissue model structural based (HCI), combined HCS and ATP, MEC < 25 × Cmax.tot cut-off
[11] = test system: isolated mouse liver mitochondria; conditions: In vitro Assay; ref Porceddu 2012; cited from earlier work
[12] = cited from earlier work
[13] = test system: PHH; conditions: cited from earlier work
[14] = test system: hLiMTs; conditions: cited from earlier work
[15] = test system: rBsep; conditions: In vitro Assay; ref Dawson 2012; cited from earlier work
[16] = test system: HepG2 cells; conditions: cited from earlier work
[17] = test system: HepG2 cells; conditions: cited from earlier work; remark: listed apart in the source
[18] = In vitro Assay, ref Proctor 2017
[19] = In vitro Assay, ref Persson 2013

Structure (SMILES): COc1ccc2c(c1)c(CC(=O)O)c(C)n2C(=O)c1ccc(Cl)cc1 [indomethacin]
- THLE-Null [1]: -VE
- Bayesian Machine Learning DILI prediction, Williams (2019) [2]: +VE
- Bayesian Machine Learning [2]: +VE
- Structural based (HCI) ([3]; In vitro Assay, ref Xu 2008): -VE
- DILI in vitro assay prediction, Xu (2008) ([3]; Structural based (HCI), human hepatocytes, ref Xu et al. 2008): -VE
- hLiMTs ATP <20 x Cmax [4]: +VE (IC20 < 20 × Cmax.tot cut-off)
- Cluster 1-6 +VE Assay [5]: -VE
- Cmax [6]: 8380 nM
- Human plasma Cmax,u [7]: 84 nM
- fu [8]: 0.010
- AC50 ([9]; read-out: ATP endpoint AC50): 9.29 µM
- minimal effective concentration ([9]; read-out: ATP endpoint MEC): 4.54 µM
- AC50 ([9]; read-out: HCS endpoint AC50): 672 µM
- minimal effective concentration ([9]; read-out: HCS endpoint MEC): 95.2 µM
- DILI prediction hLiMTs (HCS-MEC) [9]: +VE (MEC < 25 × Cmax.tot cut-off)
- hLiMTs <25x Avg Cmax ATP ([9]; hLiMTs, ATP endpoint): +ve
- hLiMTs <25x Avg Cmax HCS ([9]; hLiMTs, HCS endpoints): +ve
- hLiMTs <25x Avg Cmax All ([9]; hLiMTs): +ve
- hLiMTs Cmax max All ([9]; hLiMTs, all endpoints): +ve
- hLiMTs Cmax min All ([9]; hLiMTs, all endpoints): +ve
- HepaRG <25x Avg Cmax ATP ([10]; HepaRG, ATP endpoint): +ve
- HepaRG <25x Avg Cmax HCS ([10]; HepaRG, HCS endpoints): +ve
- HepaRG <25x Avg Cmax All ([10]; HepaRG): +ve
- HepaRG Cmax max All ([10]; HepaRG, all endpoints): +ve
- HepaRG Cmax min All ([10]; HepaRG, all endpoints): +ve
- AC50 ([10]; HepaRG, read-out: ATP endpoint AC50): 94.2 µM
- minimal effective concentration ([10]; HepaRG, read-out: ATP endpoint MEC): 79.2 µM
- AC50 ([10]; HepaRG, read-out: HCS endpoint AC50): 215 µM
- minimal effective concentration ([10]; HepaRG, read-out: HCS endpoint MEC): 23.8 µM
- DILI prediction HepaRG spheroids (HCS-MEC) [10]: +VE (MEC < 25 × Cmax.tot cut-off)
- in vitro data EC2<=1x Cmax [11]: +VE

- Human plasma Cmax,u [7]: 237 nM
- hLiMTs <25x Avg Cmax ATP ([9]; hLiMTs, ATP endpoint): -ve
- hLiMTs <100x Avg Cmaxu ATP ([9]; hLiMTs, ATP endpoint, cut-off <100x Avg Cmaxu): -ve
- hLiMTs <25x Avg Cmax HCS ([9]; hLiMTs, HCS endpoints): -ve
- hLiMTs <100x Avg Cmaxu HCS ([9]; hLiMTs, HCS endpoints, cut-off <100x Avg Cmaxu): -ve
- hLiMTs <25x Avg Cmax All ([9]; hLiMTs): -ve
- hLiMTs Cmax max All ([9]; hLiMTs, all endpoints): -ve
- hLiMTs Cmax min All ([9]; hLiMTs, all endpoints): -ve
- hLiMTs <10 uM All ([9]; hLiMTs, all endpoints, cut-off <10 uM): -ve
- hLiMTs <100x Avg Cmaxu All ([9]; hLiMTs, all endpoints, cut-off <100x Avg Cmaxu): -ve
- HepaRG <25x Avg Cmax ATP ([10]; HepaRG, ATP endpoint): -ve
- HepaRG <100x Avg Cmaxu ATP ([10]; HepaRG, ATP endpoint, cut-off <100x Avg Cmaxu): -ve
- HepaRG <25x Avg Cmax HCS ([10]; HepaRG, HCS endpoints): -ve
- HepaRG <100x Avg Cmaxu HCS ([10]; HepaRG, HCS endpoints, cut-off <100x Avg Cmaxu): -ve
- HepaRG <25x Avg Cmax All ([10]; HepaRG): -ve
- HepaRG Cmax max All ([10]; HepaRG, all endpoints): -ve
- HepaRG Cmax min All ([10]; HepaRG, all endpoints): -ve
- HepaRG <10 uM All ([10]; HepaRG, all endpoints, cut-off <10 uM): -ve
- HepaRG <100x Avg Cmaxu All ([10]; HepaRG, all endpoints, cut-off <100x Avg Cmaxu): -ve
Structure (SMILES): C#CCN(C)Cc1ccccc1 [pargyline]
- Assigned DILI category ([12]; Chen et al. 2016 or literature alignment, ref Chen et al. 2016): 1
- In vivo DILI ([12]; ref Dawson 2012): -VE
- In vivo DILI ([12]; ref Garside 2014): -VE
- In vivo DILI ([12]; ref Gustafsson 2014): -VE
- In vivo DILI ([12]; ref O'Brien 2006): -VE
- In vivo DILI ([12]; ref Persson 2013): -VE
- In vivo DILI ([12]; ref Porceddu 2012): -VE
- In vivo DILI ([12]; ref Proctor 2017): -VE
- In vivo DILI ([12]; ref Vorrink 2018): -VE
- In vivo DILI ([12]; ref Williams 2019): -VE
- THLE-Null [1]: -VE
- THLE-Null/3A4 [1]: -VE
- PHH/100xCmax, Proctor (2017) ([13]; 2D PHH, ATP, IC50 < 100 × Cmax.tot, ref Proctor et al. 2017): -VE
- PHH/100uM, Proctor (2017) ([13]; 2D PHH, ATP, IC50 threshold 100 µM, ref Proctor et al. 2017): -VE
- PHH ATP <100uM [13, 18]: -VE
- Bayesian Machine Learning DILI prediction, Williams (2019) [2]: -VE
- Bayesian Machine Learning [2]: -VE
- hLiMTs ATP <20 x Cmax [4]: -VE
- DILI in vitro assay prediction, Vorrink (2018) ([4]; PHH spheroids, ATP, 14 days, IC20 < 20 × Cmax.tot, ref Vorrink et al. 2018): -VE
- Cluster 1-6 +VE Assay [5]: +VE
- Cmax [6]: 819 nM
- fu [8]: 0.290
- hLiMTs ATP <100uM [14, 18]: -VE
- hLiMTs/100xCmax, Proctor (2017) ([14]; hLiMTs, ATP, IC50 < 100 × Cmax.tot, ref Proctor et al. 2017): -VE
- hLiMTs/100uM, Proctor (2017) ([14]; hLiMTs, ATP, IC50 threshold 100 µM, ref Proctor et al. 2017): -VE
- Inhibition of rBsep cutoff<1& cmax u>.2 [15]: -VE
- Inhibition of rBsep cutoff<3 [15]: -VE
- Cluser analysis [16, 19]: -VE
- Structural based (HCI) [16, 19]: -VE
- DILI in vitro assay prediction, Persson (2013) ([16]; Structural based (HCI), HepG2, ref Persson et al. 2013): -VE
- DILI prediction hLiMTs (HCS-MEC) [9]: -VE
- DILI prediction HepaRG spheroids (HCS-MEC) [10]: -VE
- in vitro data EC2<=1x Cmax [11]: -VE
- in vitro data EC20<=2uM [11]: -VE
- Structural based (HCI) ([17]; In vitro Assay, ref O'Brien 2006): -VE
- DILI in vitro assay prediction, O'Brien (2006) ([17]; Structural based (HCI), HepG2, ref O'Brien et al. 2006): -VE
